The source of these data is patent US11724992B2 (Novartis AG, priority 2017, dated 2023).

As usually defined, the IC50 is the concentration needed to halve the response being measured.

Bounds are passed on as bounds.

The assay concerns IL-1β production in PMA-differentiated THP-1 cells. Kind of assay: IL-1β production in PMA-differentiated THP-1 cells stimulated with gramicidin (hTHP-1 assay, 2% fetal bovine serum; Procedures 1-3). Type of assay: cell-based, human. As to conditions: hTHP-1 assay containing 2% fetal bovine serum; class symbols; read-out: hTHP-1 IC50 (Average IC50 of compounds in hTHP-1 assay). The method, boiled down: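 Readout is HTRF of IL-1β in cell-free supernatant after 2 h gramicidin (5 μM) challenge. Cells: THP-1 differentiated with PMA 20 ng/ml for 16-18 h, plated 50,000/well in 2% FBS RPMI, exposed to compound 1 h beforehand at final 100–0.0017 μM, DMSO 0.37%.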
On to `CC(C)(O)c1ncc(S(N)(=O)=NC(=O)Nc2c3c(cc4c2CCC4=O)CCC3)s1` (single isomer, unassigned) [Example 336, (R) or (S)-2-(2-Hydroxypropan-2-yl)-N′-((1-oxo-1,2,3,5,6,7-hexahydro-s-indacen-4-yl)carbamoyl)thiazole-5-sulfonimidamide from Example 293], for which the IC50 was 200 to 1000 nM.
On to `CC(C)(O)c1csc(S(N)(=O)=NC(=O)Nc2c3c(cc4c2CC4)CCC3)n1` (single isomer, unassigned) [Example 341, (R) or (S)-4-(2-hydroxypropan-2-yl)-N′-((2,4,5,6-tetrahydro-1H-cyclobuta[f]inden-3-yl)carbamoyl)thiazole-2-sulfonimidamide], for which the IC50 is less than 8 nM.
As for `CC(C)(O)c1csc(S(N)(=O)=NC(=O)Nc2c3c(cc4c2CC4)CCC3)n1` (single isomer, unassigned) [Example 342, (R) or (S)-4-(2-hydroxypropan-2-yl)-N′-((2,4,5,6-tetrahydro-1H-cyclobuta[f]inden-3-yl)carbamoyl)thiazole-2-sulfonimidamide], the IC50 lay in the range of 200 to 1000 nM.
As to `CC(C)(O)c1ncc(S(N)(=O)=NC(=O)Nc2c3c(cc4c2OCC4)CCC3)s1` (single isomer, unassigned) [Example 343, (R) or (S)-2-(2-hydroxypropan-2-yl)-N′-((3,5,6,7-tetrahydro-2H-indeno[5,6-b]furan-8-yl)carbamoyl)thiazole-5-sulfonimidamide], the IC50 is 40 to 200 nM.
With `CC(C)(O)c1ncc(S(N)(=O)=NC(=O)Nc2c3c(cc4c2OCC4)CCC3)s1` (single isomer, unassigned) [Example 344, (R) or (S)-2-(2-hydroxypropan-2-yl)-N′-((3,5,6,7-tetrahydro-2H-indeno[5,6-b]furan-8-yl)carbamoyl)thiazole-5-sulfonimidamide], the IC50 lay in the range of 1000 to 5000 nM.
`Cc1nc(C(C)(C)O)ccc1S(N)(=O)=NC(=O)Nc1c2c(cc3c1CCC3)CCC2` (single isomer, unassigned) [Example 345, (R) or (S)-N′-((1,2,3,5,6,7-hexahydro-s-indacen-4-yl)carbamoyl)-6-(2-hydroxypropan-2-yl)-2-methylpyridine-3-sulfonimidamide]: the IC50 is 200 to 1000 nM.
Turning to `Cc1nc(C(C)(C)O)ccc1S(N)(=O)=NC(=O)Nc1c2c(cc3c1CCC3)CCC2` (single isomer, unassigned) [Example 346, (R) or (S)-N′-((1,2,3,5,6,7-hexahydro-s-indacen-4-yl)carbamoyl)-6-(2-hydroxypropan-2-yl)-2-methylpyridine-3-sulfonimidamide], the IC50 was 5000 to 30000 nM.
In the case of `CC(C)(O)c1cnc(S(N)(=O)=NC(=O)Nc2c3c(cc4c2CCO4)CCC3)s1` (single isomer, unassigned) [Example 347, (R) or (S)-5-(2-hydroxypropan-2-yl)-N′-((3,5,6,7-tetrahydro-2H-indeno[5,6-b]furan-4-yl)carbamoyl)thiazole-2-sulfonimidamide], the IC50 is 8 to 40 nM.
In the case of `CC(C)(O)c1cnc(S(N)(=O)=NC(=O)Nc2c3c(cc4c2CCO4)CCC3)s1` (single isomer, unassigned) [Example 348, (S) or (R)-5-(2-hydroxypropan-2-yl)-N′-((3,5,6,7-tetrahydro-2H-indeno[5,6-b]furan-4-yl)carbamoyl)thiazole-2-sulfonimidamide], the IC50 lay in the range of 1000 to 5000 nM.
For `CC(C)(O)c1cnc(S(N)(=O)=NC(=O)Nc2c3c(cc4c2OCC4)CCC3)s1` (single isomer, unassigned) [Example 349, (S) or (R)-5-(2-hydroxypropan-2-yl)-N′-((3,5,6,7-tetrahydro-2H-indeno[5,6-b]furan-8-yl)carbamoyl)thiazole-2-sulfonimidamide], the half-inhibitory concentration (IC50) lay within 1000 to 5000 nM.
With `CC(C)(O)c1cnc(S(N)(=O)=NC(=O)Nc2c3c(cc4c2OCC4)CCC3)s1` (single isomer, unassigned) [Example 350, (R) or (S)-5-(2-hydroxypropan-2-yl)-N′-((3,5,6,7-tetrahydro-2H-indeno[5,6-b]furan-8-yl)carbamoyl)thiazole-2-sulfonimidamide], the IC50 was 40 to 200 nM.
Regarding `CC(C)(O)c1cnc(S(N)(=O)=NC(=O)Nc2c3c(c(Br)c4c2CCC4)CCC3)s1` (single isomer, unassigned) [Example 351, (S) or (R)-N′-((8-bromo-1,2,3,5,6,7-hexahydro-s-indacen-4-yl)carbamoyl)-5-(2-hydroxypropan-2-yl)thiazole-2-sulfonimidamide], the IC50 was in the range of 200 to 1000 nM.
On to `CC(C)(O)c1cnc(S(N)(=O)=NC(=O)Nc2c3c(c(Br)c4c2CCC4)CCC3)s1` (single isomer, unassigned) [Example 352, (R) or (S)-N′-((8-bromo-1,2,3,5,6,7-hexahydro-s-indacen-4-yl)carbamoyl)-5-(2-hydroxypropan-2-yl)thiazole-2-sulfonimidamide], for which the IC50 was 40 to 200 nM.
Consider `CC(C)(O)c1csc(S(N)(=O)=NC(=O)Nc2c3c(cc4c2OCC4)CCC3)n1` (single isomer, unassigned) [Example 353, (S) or (R)-4-(2-hydroxypropan-2-yl)-N′-((3,5,6,7-tetrahydro-2H-indeno[5,6-b]furan-8-yl)carbamoyl)thiazole-2-sulfonimidamide], for which the IC50 lay within 1000 to 5000 nM.
With `CC(C)(O)c1csc(S(N)(=O)=NC(=O)Nc2c3c(cc4c2OCC4)CCC3)n1` (single isomer, unassigned) [Example 354, (R) or (S)-4-(2-hydroxypropan-2-yl)-N′-((3,5,6,7-tetrahydro-2H-indeno[5,6-b]furan-8-yl)carbamoyl)thiazole-2-sulfonimidamide] the figure was 8 to 40 nM; with `CC(C)(O)c1ncc(S(N)(=O)=NC(=O)Nc2c3c(cc4c2CC4)CC3)s1` (single isomer, unassigned) [Example 355, (R) or (S)-2-(2-hydroxypropan-2-yl)-N′-(tricyclo[6.2.0.03,6]deca-1,3(6),7-trien-2-ylcarbamoyl)thiazole-5-sulfonimidamide], less than 8 nM.
With `CC(C)(O)c1ncc(S(N)(=O)=NC(=O)Nc2c3c(cc4c2CC4)CC3)s1` (single isomer, unassigned) [Example 356, (S) or (R)-2-(2-hydroxypropan-2-yl)-N′-(tricyclo[6.2.0.03,6]deca-1,3(6),7-trien-2-ylcarbamoyl)thiazole-5-sulfonimidamide], the IC50 fell in the range of 200 to 1000 nM.
Consider `Cc1sc(S(N)(=O)=NC(=O)Nc2c3c(cc4c2CCC4)CCC3)nc1C(C)(C)O` (single isomer, unassigned) [Example 359, (R) or (S)-N′-((1,2,3,5,6,7-hexahydro-s-indacen-4-yl)carbamoyl)-4-(2-hydroxypropan-2-yl)-5-methylthiazole-2-sulfonimidamide], for which the IC50 was 8 to 40 nM.
On to `Cc1sc(S(N)(=O)=NC(=O)Nc2c3c(cc4c2CCC4)CCC3)nc1C(C)(C)O` (single isomer, unassigned) [Example 360, (S) or (R)-N′-((1,2,3,5,6,7-hexahydro-s-indacen-4-yl)carbamoyl)-4-(2-hydroxypropan-2-yl)-5-methylthiazole-2-sulfonimidamide], for which the IC50 was 200 to 1000 nM.
With `CN(C)C(C)(C)c1ccc(S(N)(=O)=NC(=O)Nc2c3c(cc4c2CCC4)CCC3)cc1` (single isomer, unassigned) [Example 361, (R) or (S)-4-(2-(dimethylamino)propan-2-yl)-N′-((1,2,3,5,6,7-hexahydro-s-indacen-4-yl)carbamoyl)benzenesulfonimidamide] the figure was 40 to 200 nM.
As for `CN(C)C(C)(C)c1ccc(S(N)(=O)=NC(=O)Nc2c3c(cc4c2CCC4)CCC3)cc1` (single isomer, unassigned) [Example 362, (S) or (R)-4-(2-(dimethylamino)propan-2-yl)-N′-((1,2,3,5,6,7-hexahydro-s-indacen-4-yl)carbamoyl)benzenesulfonimidamide], the half-maximal inhibitory concentration (IC50) fell in the range of 1000 to 5000 nM.
`CC(C)(O)c1ncc(S(N)(=O)=NC(=O)Nc2c3c(cc4c2C(=O)CC4)CCC3)s1` (single isomer, unassigned) [Example 363, (S) or (R)-2-(2-Hydroxypropan-2-yl)-N′-((3-oxo-1,2,3,5,6,7-hexahydro-s-indacen-4-yl)carbamoyl)thiazole-5-sulfonimidamide]: the IC50 fell in the range of 1000 to 5000 nM.
As for `CC(C)(O)c1ncc(S(N)(=O)=NC(=O)Nc2c3c(cc4c2C(=O)CC4)CCC3)s1` (single isomer, unassigned) [Example 364, (R) or (S)-2-(2-Hydroxypropan-2-yl)-N′-((3-oxo-1,2,3,5,6,7-hexahydro-s-indacen-4-yl)carbamoyl)thiazole-5-sulfonimidamide], the IC50 was 40 to 200 nM.
`CC(c1ccc(S(N)(=O)=NC(=O)Nc2c3c(cc4c2CCC4)CCC3)cc1)N(C)C` (single isomer, unassigned) [Example 371, (S) or (R)-4-(1-(dimethylamino)ethyl)-N′-((1,2,3,5,6,7-hexahydro-s-indacen-4-yl)carbamoyl)benzenesulfonimidamide]: the concentration for half-maximal inhibition (IC50) was 5000 to 30000 nM.
`CC(c1ccc(S(N)(=O)=NC(=O)Nc2c3c(cc4c2CCC4)CCC3)cc1)N(C)C` (single isomer, unassigned) [Example 372, (R) or (S)-4-(1-(dimethylamino)ethyl)-N′-((1,2,3,5,6,7-hexahydro-s-indacen-4-yl)carbamoyl)benzenesulfonimidamide]: the IC50 was in the range of 40 to 200 nM.
Regarding `CNS(=O)(=NC(=O)Nc1c2c(cc3c1CCC3)CCC2)c1cnc(C(C)(C)O)s1` (single isomer, unassigned) [Example 373, (R) or (S)-N′-((1,2,3,5,6,7-hexahydro-s-indacen-4-yl)carbamoyl)-2-(2-hydroxypropan-2-yl)-N-methylthiazole-5-sulfonimidamide], the IC50 lay within 5000 to 30000 nM.
Turning to `CNS(=O)(=NC(=O)Nc1c2c(cc3c1CCC3)CCC2)c1cnc(C(C)(C)O)s1` (single isomer, unassigned) [Example 374, (S) or (R)-N′-((1,2,3,5,6,7-hexahydro-s-indacen-4-yl)carbamoyl)-2-(2-hydroxypropan-2-yl)-N-methylthiazole-5-sulfonimidamide], the IC50 is 8 to 40 nM.
